Data published in US10300067B2, “Tetrahydropyridopyrimidine compound or salt thereof” (TAIHO PHARMACEUTICAL CO., LTD., priority 2014, dated 2019).
Where two headings read alike, the source gives them in different places.

Assays:
Type in all cases: cell-based
human androgen receptor = human androgen receptor (Homo sapiens (Human), UniProt P10275); assay: Antagonist activity for AR (pMMTV-luc reporter transcription activity in transfected COS-7 cells, DHT 1 nmol/L); conditions: 50% transcription activity inhibition concentration; COS-7 cells with pMMTV-luc and pEX-hAR, DHT 1 nmol/L, 24 hours
How it was run: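 COS-7 cells co-transfected with pMMTV-luc reporter and CMV-driven human AR expression vector, cultured overnight in phenol red-free RPMI1640 with 10% charcoal-treated FBS. Antagonism measured against 1 nmol/L DHT by luciferase transcription activity.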

[1] = system: Human prostate cancer cells LNCaP; assay: Androgen-dependent inhibitory activity on proliferation of prostate cancer cells; conditions: read-out: GI50 value
Description: Human prostate cancer cells LNCaP (Non-Patent Literature 5) having […] androgen receptor gene were seeded in a clear bottom 96 well microplate (BD) at 4.0×10^3/well with phenol red free RPMI1640 containing 5% DCC-FBS (hereinbelow, the medium is referred to as an evaluation medium), and then cultured overnight. The culture was added with the evaluation medium containing DHT (final concentration of DHT: 10 nmol/L) or the evaluation medium containing the compound of Examples or the compound of Comparative Examples (final concentration of the compound of Examples or the compound of Comparative Examples: 10, 30, 100, 300, 1000, 3000, 10000, or 30000 nmol/L), followed by culture for 72 hours. Then, the number of viable cells was counted. The number of viable cells was measured by using Cell Counting Kit-8 (DOJINDO LABORATORIES).

[2] = system: AR positive human prostate cancer cells VCaP; assay: Agonist activity for AR (cell proliferation rate of VCaP cells); conditions: 72 hours, 2 to 10000 nmol/L, more than 10% at any concentration = agonist activity for AR
How it was run: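 VCaP cells seeded at 1.5×10^4/well in phenol-red-free RPMI1640 with 5% DCC-FBS, then exposed 72 h to compound at 2–10000 nmol/L (9 concentrations). Viable cells counted by CellTiter-Glo; proliferation rate (%) relative to medium-only control, agonist activity called when >10% at any concentration.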

androgen receptor = androgen receptor (Homo sapiens (Human), UniProt P10275, T878A); assay: Activity of reducing expression level of androgen receptor (Western blotting of LNCaP cell lysate); conditions: 48 hours
How it was run: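 LNCaP prostate cancer cells (AR T878A) in phenol red-free RPMI1640 with 5% FBS treated with compound at final 10000 nmol/L for 48 h. Cell lysates analysed by Western blot with anti-AR antibody; band quantified by chemiluminescence.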

[3] = 50% proliferation inhibition concentration, DHT 10 nmol/L, 72 hours

androgen receptor, sequence (P10275 whole entry T878A): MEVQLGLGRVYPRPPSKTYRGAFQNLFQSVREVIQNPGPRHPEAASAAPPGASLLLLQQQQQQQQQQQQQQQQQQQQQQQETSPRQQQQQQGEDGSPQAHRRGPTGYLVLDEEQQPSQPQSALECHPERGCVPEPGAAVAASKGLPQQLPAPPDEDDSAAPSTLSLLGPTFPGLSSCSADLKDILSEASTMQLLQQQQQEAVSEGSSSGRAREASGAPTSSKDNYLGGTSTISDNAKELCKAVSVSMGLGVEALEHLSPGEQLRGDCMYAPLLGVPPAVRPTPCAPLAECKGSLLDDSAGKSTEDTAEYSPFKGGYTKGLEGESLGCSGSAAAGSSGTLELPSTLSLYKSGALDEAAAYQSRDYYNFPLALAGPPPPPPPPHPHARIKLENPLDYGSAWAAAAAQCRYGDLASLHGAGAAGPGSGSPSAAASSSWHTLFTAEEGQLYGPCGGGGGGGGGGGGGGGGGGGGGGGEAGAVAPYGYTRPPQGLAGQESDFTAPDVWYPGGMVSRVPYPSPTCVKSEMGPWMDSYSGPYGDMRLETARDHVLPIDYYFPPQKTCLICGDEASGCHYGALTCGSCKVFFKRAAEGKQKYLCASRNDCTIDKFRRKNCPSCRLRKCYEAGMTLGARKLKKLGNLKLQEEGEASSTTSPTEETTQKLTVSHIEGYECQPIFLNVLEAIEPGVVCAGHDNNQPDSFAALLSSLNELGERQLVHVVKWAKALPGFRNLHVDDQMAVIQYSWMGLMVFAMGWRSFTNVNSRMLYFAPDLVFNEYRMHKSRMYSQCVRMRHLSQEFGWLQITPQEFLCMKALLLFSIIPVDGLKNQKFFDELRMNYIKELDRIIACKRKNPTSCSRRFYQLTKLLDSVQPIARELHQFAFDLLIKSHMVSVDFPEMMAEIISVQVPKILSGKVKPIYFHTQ
human androgen receptor, sequence (P10275 whole entry): as the sequence (P10275 whole entry T878A) above, with A878T counted along it

For `C[C@@H](NC(=O)c1ccc(Nc2ncnc3c2CCN(c2ccc(C#N)c(C(F)(F)F)c2)C3)nc1)c1nnc(C(F)(F)F)o1` [Example 40, (R)-6-((7-(4-cyano-3-(trifluoromethyl)phenyl)-5,6,7,8-tetrahydropyrido[3,4-d]pyrimidin-4-yl)amino)-N-(1-(5-(trifluoromethyl)-1,3,4-oxadiazol-2-yl)ethyl)nicotinamide], the IC50 (human androgen receptor) was 0.26 µM, the GI50 [1, 3] was 0.4 µM and the “Cell proliferation rate (%)” value [2] was 0.0%. For the same molecule, the “10 μM AR expression reducing activity” value (androgen receptor) was “reduced (When the AR expression reducing activity is 50% or more, it is described as “reduced”)”.
With `CC(C)(O)C1CCN(C(=O)c2cnc(Nc3ncnc4c3CCN(c3ccc(C#N)c(C(F)(F)F)c3)C4)o2)CC1` [Example 42, 4-(4-((5-(4-(2-hydroxypropan-2-yl)piperidin-1-carbonyl)oxazol-2-yl)amino)-5,6-dihydropyrido[3,4-d]pyrimidin-7(8H)-yl)-2-(trifluoromethyl)benzonitrile] the IC50 (human androgen receptor) was 0.34 µM, the GI50 ([1]; 72 h) was 1.1 µM and the “Cell proliferation rate (%)” value [2] was −17.2%. The “10 μM AR expression reducing activity” value (androgen receptor) was “reduced (When the AR expression reducing activity is 50% or more, it is described as “reduced”)”.
In the case of `CC(C)(O)c1ccc(Nc2ncnc3c2CCN(c2ccc(C#N)c(C(F)(F)F)c2)C3)nc1F` [Example 5, 4-(4-((6-fluoro-5-(2-hydroxypropan-2-yl)pyridin-2-yl)amino)-5,6-dihydropyrido[3,4-d]pyrimidin-7 (8H)-yl)-2-(trifluoromethyl)benzonitrile], the IC50 (human androgen receptor) is reported as 0.19 µM, the GI50 [1, 3] is reported as 0.6 µM and the “Cell proliferation rate (%)” value [2] is reported as −5.5%. The “10 μM AR expression reducing activity” value (androgen receptor) was “reduced (When the AR expression reducing activity is 50% or more, it is described as “reduced”)”.
In the case of `CC(C)(COc1ccc(Nc2ncnc3c2CCN(c2ccc(C#N)c(C(F)(F)F)c2)C3)cn1)n1cnnn1` [Example 16, 4-(4-((6-(2-methyl-2-(1H-tetrazol-1-yl)propoxy)pyridin-3-yl)amino)-5,6-dihydropyrido[3,4-d]pyrimidin-7(8H)-yl)-2-(trifluoromethyl)benzonitrile], the IC50 (human androgen receptor) is reported as 0.21 µM, the GI50 [1, 3] is reported as 0.7 µM and the “Cell proliferation rate (%)” value [2] is reported as −1.5%. The “10 μM AR expression reducing activity” value (androgen receptor) was “reduced (When the AR expression reducing activity is 50% or more, it is described as “reduced”)”.
In the case of `N#Cc1ccc(N2CCc3c(ncnc3Nc3ncc(S(=O)(=O)N4CCCOCC4)s3)C2)cc1C(F)(F)F` [Example 20, 4-(4-((5-((1,4-oxazepan-4-yl)sulfonyl)thiazol-2-yl)amino)-5,6-dihydropyrido[3,4-d]pyrimidin-7 (8H)-yl)-2-(trifluoromethyl)benzonitrile], the IC50 (human androgen receptor) is reported as 0.1 µM, the GI50 [1, 3] is reported as 2.5 µM and the “Cell proliferation rate (%)” value [2] is reported as 0.0%. The “10 μM AR expression reducing activity” value (androgen receptor) was “reduced (When the AR expression reducing activity is 50% or more, it is described as “reduced”)”.
In the case of `CS(=O)(=O)N1CCN(CCCOc2ccc(Nc3ncnc4c3CCN(c3ccc(C#N)c(C(F)(F)F)c3)C4)cc2)CC1` [Example 18, 4-(4-((4-(3-(4-(methylsulfonyl)piperazin-1-yl)propoxy)phenyl)amino)-5,6-dihydropyrido[3,4-d]pyrimidin-7(8H)-yl)-2-(trifluoromethyl)benzonitrile], the IC50 (human androgen receptor) is reported as 0.36 µM, the GI50 [1, 3] is reported as 1.9 µM and the “Cell proliferation rate (%)” value [2] is reported as −4.6%. For the same molecule, the “10 μM AR expression reducing activity” value (androgen receptor) was “reduced (When the AR expression reducing activity is 50% or more, it is described as “reduced”)”.
For `N#Cc1ccc(N2CCc3c(ncnc3Nc3ncns3)C2)cc1C(F)(F)F` [Example 1, 4-(4-((1,2,4-thiadiazol-5-yl)amino)-5,6-dihydropyrido[3,4-d]pyrimidin-7(8H)-yl)-2-(trifluoromethyl)benzonitrile], the IC50 (human androgen receptor) was 0.08 µM, the GI50 [1, 3] was 3 µM and the “Cell proliferation rate (%)” value [2] was 8.7%. The “10 μM AR expression reducing activity” value (androgen receptor) was “reduced (When the AR expression reducing activity is 50% or more, it is described as “reduced”)”.
